In ChEMBL document CHEMBL1131645, “Synthesis and activity studies of N-[omega-N'-(adamant-1'-yl)aminoalkyl]- 2-(4'-dimethylaminophenyl)acetamides: in the search of selective inhibitors for the different molecular forms of acetylcholinesterase” (Bioorg Med Chem Lett, 1998) one finds Ki, IC50 and KI' data, which are given here for six compounds.

Assay [1] deals with T1, Acetylcholinesterase (Torpedo californica, UniProt P04058). As to the kind of experiment: Compound was evaluated for competitive inhibition constant of acetylcholinesterase (AChE) from Torpedo californica. Set-up: species or system Tetronarce californica.
T1 sequence (P04058 whole entry): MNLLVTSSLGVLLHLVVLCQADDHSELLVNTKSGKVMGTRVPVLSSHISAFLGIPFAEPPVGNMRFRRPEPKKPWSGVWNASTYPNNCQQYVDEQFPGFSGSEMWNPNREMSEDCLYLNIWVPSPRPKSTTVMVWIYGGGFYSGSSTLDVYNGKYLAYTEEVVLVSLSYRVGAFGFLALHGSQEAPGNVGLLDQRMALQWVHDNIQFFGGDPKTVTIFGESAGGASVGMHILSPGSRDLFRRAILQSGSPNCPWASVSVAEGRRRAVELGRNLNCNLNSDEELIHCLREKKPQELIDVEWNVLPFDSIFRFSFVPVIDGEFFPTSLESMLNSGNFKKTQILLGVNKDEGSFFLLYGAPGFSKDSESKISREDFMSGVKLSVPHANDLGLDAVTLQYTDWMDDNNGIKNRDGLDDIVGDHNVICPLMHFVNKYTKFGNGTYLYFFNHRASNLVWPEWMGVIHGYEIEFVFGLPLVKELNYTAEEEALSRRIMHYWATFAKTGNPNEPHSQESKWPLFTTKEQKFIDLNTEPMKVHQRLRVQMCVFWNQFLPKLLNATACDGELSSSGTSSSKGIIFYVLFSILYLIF
Assay [2] has as its target Acetylcholinesterase (Homo sapiens, UniProt P22303).
Description: Compound was evaluated for the inhibition of acetylcholinesterase (AChE) in human erythrocytes
Assay [3] has as its target T2, Acetylcholinesterase (Electrophorus electricus, UniProt O42275).
Description: Compound was evaluated for the inhibition of acetylcholinesterase (AChE) in electric eel
Assay [4] concerns the target T3, Acetylcholinesterase (Bos taurus, UniProt P23795).
T3 sequence (P23795 whole entry): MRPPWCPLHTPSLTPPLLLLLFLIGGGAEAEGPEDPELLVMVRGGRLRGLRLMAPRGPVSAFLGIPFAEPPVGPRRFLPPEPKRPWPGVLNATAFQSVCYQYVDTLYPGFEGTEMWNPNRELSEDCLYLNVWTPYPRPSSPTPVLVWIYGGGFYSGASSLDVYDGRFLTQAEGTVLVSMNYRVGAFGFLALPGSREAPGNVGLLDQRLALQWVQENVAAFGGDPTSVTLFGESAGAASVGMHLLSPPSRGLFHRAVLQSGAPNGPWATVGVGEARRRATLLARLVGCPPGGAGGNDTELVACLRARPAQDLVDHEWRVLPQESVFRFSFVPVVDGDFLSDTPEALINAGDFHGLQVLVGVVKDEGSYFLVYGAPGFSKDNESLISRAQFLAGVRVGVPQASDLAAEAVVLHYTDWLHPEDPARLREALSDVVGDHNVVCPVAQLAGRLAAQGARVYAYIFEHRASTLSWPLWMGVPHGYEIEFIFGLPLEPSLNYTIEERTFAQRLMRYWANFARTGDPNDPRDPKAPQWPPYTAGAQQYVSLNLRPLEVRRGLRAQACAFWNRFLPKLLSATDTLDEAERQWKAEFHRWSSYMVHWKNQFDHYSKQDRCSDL

Assay [5] concerns the target T1, Acetylcholinesterase.
Description: Compound was evaluated for the inhibition of acetylcholinesterase (AChE) in Torpedo californica
For assay [6], the target named is T3, Acetylcholinesterase. This is another data set of the same source.
Description: Compound was evaluated for the inhibition of acetylcholinesterase (AChE) in bovine brain
Assay [7] has as its target Acetylcholinesterase (Torpedo californica) (UniProt P04058). As to the kind of experiment: Compound was evaluated for non-competitive inhibition constant of acetylcholinesterase (AChE) from Torpedo californica. Particulars: Tetronarce californica.
Assay [8] addresses T1, Acetylcholinesterase. Nature of the assay: Compound was evaluated for the inhibition of acetylcholinesterase in Torpedo californica. Set-up: species or system Tetronarce californica.
Assay [9] deals with T2, Acetylcholinesterase. As to the kind of experiment: Compound was evaluated for the inhibition of acetylcholinesterase in electric eel.
For assay [10], the target named is T3, Acetylcholinesterase. Nature of the assay: Compound was evaluated for the inhibition of acetylcholinesterase (AChE) in bovine erythrocytes. It counts as cell-based.

Sequence of Acetylcholinesterase (Torpedo californica) (P04058 22-564 limits assumed): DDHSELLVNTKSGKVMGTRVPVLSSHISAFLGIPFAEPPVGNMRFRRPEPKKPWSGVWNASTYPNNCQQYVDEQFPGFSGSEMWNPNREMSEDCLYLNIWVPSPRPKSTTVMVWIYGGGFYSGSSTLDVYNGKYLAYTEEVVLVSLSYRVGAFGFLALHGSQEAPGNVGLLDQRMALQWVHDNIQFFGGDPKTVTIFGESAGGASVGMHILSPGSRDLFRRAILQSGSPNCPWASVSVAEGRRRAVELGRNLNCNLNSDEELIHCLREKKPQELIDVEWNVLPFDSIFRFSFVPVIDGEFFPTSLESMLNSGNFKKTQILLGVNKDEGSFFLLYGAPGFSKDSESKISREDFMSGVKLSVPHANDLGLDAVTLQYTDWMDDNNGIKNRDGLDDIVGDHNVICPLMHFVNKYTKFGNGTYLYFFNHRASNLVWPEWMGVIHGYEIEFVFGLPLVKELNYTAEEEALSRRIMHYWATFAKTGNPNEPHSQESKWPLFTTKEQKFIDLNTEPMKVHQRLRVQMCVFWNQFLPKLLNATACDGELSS
Sequence of Acetylcholinesterase (Homo sapiens, UniProt P22303) (P22303 whole entry): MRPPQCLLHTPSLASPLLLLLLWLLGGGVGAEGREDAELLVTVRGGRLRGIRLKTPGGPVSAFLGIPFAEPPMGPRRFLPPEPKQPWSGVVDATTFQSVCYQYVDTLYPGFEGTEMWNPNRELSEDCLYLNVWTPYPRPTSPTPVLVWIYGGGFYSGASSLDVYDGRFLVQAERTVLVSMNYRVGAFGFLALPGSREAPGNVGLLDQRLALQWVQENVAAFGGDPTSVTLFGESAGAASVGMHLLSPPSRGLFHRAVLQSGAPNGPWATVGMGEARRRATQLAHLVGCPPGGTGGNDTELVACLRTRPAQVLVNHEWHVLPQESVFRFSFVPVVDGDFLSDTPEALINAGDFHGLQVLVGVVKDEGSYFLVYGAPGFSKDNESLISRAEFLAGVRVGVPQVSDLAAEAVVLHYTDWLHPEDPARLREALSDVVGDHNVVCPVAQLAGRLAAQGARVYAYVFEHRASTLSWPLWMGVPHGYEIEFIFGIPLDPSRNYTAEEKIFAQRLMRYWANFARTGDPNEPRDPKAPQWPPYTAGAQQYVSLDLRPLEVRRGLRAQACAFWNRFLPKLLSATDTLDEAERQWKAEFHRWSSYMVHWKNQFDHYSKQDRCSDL
T2 sequence (O42275 whole entry): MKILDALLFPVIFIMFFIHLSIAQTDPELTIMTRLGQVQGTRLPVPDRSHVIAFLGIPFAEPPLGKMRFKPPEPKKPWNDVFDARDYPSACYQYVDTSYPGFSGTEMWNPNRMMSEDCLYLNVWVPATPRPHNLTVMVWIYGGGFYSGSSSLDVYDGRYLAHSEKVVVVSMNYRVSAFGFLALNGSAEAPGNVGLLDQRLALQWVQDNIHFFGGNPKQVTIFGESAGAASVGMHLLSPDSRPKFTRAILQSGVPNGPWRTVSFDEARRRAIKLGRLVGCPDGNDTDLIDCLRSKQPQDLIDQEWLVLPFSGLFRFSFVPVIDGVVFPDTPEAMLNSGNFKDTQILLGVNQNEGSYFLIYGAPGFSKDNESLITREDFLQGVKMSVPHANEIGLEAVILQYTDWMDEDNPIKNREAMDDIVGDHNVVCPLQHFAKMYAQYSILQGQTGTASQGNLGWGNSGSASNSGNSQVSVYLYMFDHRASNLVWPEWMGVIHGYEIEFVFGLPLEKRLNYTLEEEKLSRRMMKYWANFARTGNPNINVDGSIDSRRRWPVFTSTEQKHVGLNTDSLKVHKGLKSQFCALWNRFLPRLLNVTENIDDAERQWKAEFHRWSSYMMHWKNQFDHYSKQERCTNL

As usually defined, the Ki is a measure of affinity in units of concentration, obtained from inhibition or displacement. Usually IC50 stands for the concentration that inhibits the measured activity by half. Read a high IC50 as lower potency. For the compound `CN(C)c1ccc(CC(=O)NCCCCCCCCCCCCNC23CC4CC(CC(C4)C2)C3)cc1`, the affinity on Acetylcholinesterase [1], expressed as Ki, was 1.8 µM. The 50% inhibitory concentration (IC50) against Acetylcholinesterase [2] was greater than 100 µM; at Acetylcholinesterase [3], 8.9 µM; at Acetylcholinesterase [4], 19 µM; against Acetylcholinesterase [5], 3.3 µM; against Acetylcholinesterase [6], 20 µM. Besides, the KI' in assay [7] turned out to be 4.1 µM.
On to `CN(C)c1ccc(CC(=O)NCCCCCCCCCCNC23CC4CC(CC(C4)C2)C3)cc1`, for which the 50% inhibitory concentration (IC50) against Acetylcholinesterase [8] is 5.3 µM; on Acetylcholinesterase [2], greater than 100 µM; at Acetylcholinesterase [4], 95 µM; at Acetylcholinesterase [9], 14 µM; at Acetylcholinesterase [6] it was 77 µM. Also, the affinity at Acetylcholinesterase [1], expressed as Ki, was 2.5 µM. The same compound came in with a KI' in assay [7] of 5.3 µM.
The compound `CN(C)c1ccc(CC(=O)NCCCCCCCCCNC23CC4CC(CC(C4)C2)C3)cc1` had an inhibitory constant (Ki) on Acetylcholinesterase [1] of 3.4 µM. The compound further yielded a KI' in assay [7] of 7 µM.
`CN(C)c1ccc(CC(=O)NCCCCCCCCCCCNC23CC4CC(CC(C4)C2)C3)cc1` showed a Ki at Acetylcholinesterase [1] of 2.1 µM. The compound further displayed a KI' in assay [7] of 5.2 µM.
As to `CN(C)c1ccc(CC(=O)NCCCCCCCCNC23CC4CC(CC(C4)C2)C3)cc1`, the IC50 against Acetylcholinesterase [8] was 10 µM; against Acetylcholinesterase [10] it was greater than 100 µM; against Acetylcholinesterase [2] it was greater than 100 µM; against Acetylcholinesterase [3] it was 28 µM; against Acetylcholinesterase [6], greater than 100 µM. The same compound registered a Ki on Acetylcholinesterase [1] of 5.5 µM. In assay [7], this compound came in with a KI' of 10 µM.
In turn, `CN(C)c1ccc(CC(=O)NCCCCCCCNC23CC4CC(CC(C4)C2)C3)cc1` showed a Ki at Acetylcholinesterase [1] of 7 µM. For the same compound, in assay [7], the KI' was 13 µM.
